# Source: publication PMC8952364, “Polyphenols as Inhibitors of Antibiotic Resistant Bacteria—Mechanisms Underlying Rutin Interference with Bacterial Virulence” (Pharmaceuticals, 2022)
# Like-named read-outs stand apart in the source and are kept apart here.
# Legend:
# S. infantis 1371/1 = assay: Antimicrobial microdilution assay (MIC/MBC); assay type: cell-based, Salmonella Infantis; conditions: Salmonella enterica, 1371/1; for MIC: 37 °C, 24 h, read-out: MIC; for MBC: subcultivation, 24 h at 37 °C, read-out: MBC
# Experimental: (§1) The bacterial suspension (0.5 Mc Farland) was prepared, and twenty-fold dilutions of these suspensions were mixed in a 1:10 ratio with the corresponding polyphenol dilution (0.0039–1 mg/mL). Microtiter plates were incubated at 37 °C for 24 h. The lowest concentrations without visible growth (under a binocular microscope) were defined as MICs. The bactericidal concentrations (MBCs) were determined by serial subcultivation of 2 μL of the well’s content and further incubation for 24 h at 37 °C. Streptomycin (SigmaAldrich, Darmstadt, Germany) was used as a positive control. The polyphenols were obtained from Extrasynthese, Rhone, France (rutin, isoquercitrin) and SigmaAldrich, Germany (hesperetin, hesperidin, naringenin, naringin, taxifolin, morin, chlorogenic acid, ferulic acid, p-coumaric acid, and gallic acid). The stock compounds were prepared in ethanol (30%), and adequate ethanol concentrations were used as the negative control in the assays. Experiments were done in triplicate.
# E. coli IMD989 = assay: Antimicrobial microdilution assay (MIC/MBC); assay type: cell-based, Escherichia coli; conditions: Escherichia coli, IMD989; for MIC: 37 °C, 24 h, read-out: MIC; for MBC: subcultivation, 24 h at 37 °C, read-out: MBC
# Experimental: as §1
# E. coli IBRS E003 = assay: Antimicrobial microdilution assay (MIC/MBC); assay type: cell-based, Escherichia coli; conditions: Escherichia coli, IBRSE003; for MIC: 37 °C, 24 h, read-out: MIC; for MBC: subcultivation, 24 h at 37 °C, read-out: MBC
# Experimental: as §1
# A. xylosoxidans 37F = assay: Antimicrobial microdilution assay (MIC/MBC); assay type: cell-based, Achromobacter xylosoxidans; conditions: Achromobacter xylosoxidans, 37F; for MIC: 37 °C, 24 h, read-out: MIC; for MBC: subcultivation, 24 h at 37 °C, read-out: MBC
# Experimental: as §1
# [1] = system: Methicillin resistant S. aureus IBRS MRSA 011; assay: Antimicrobial microdilution assay (MIC/MBC); assay type: cell-based, Staphylococcus aureus
# Experimental: as §1
# A. baumannii 6077/12 = assay: Antimicrobial microdilution assay (MIC/MBC); assay type: cell-based, Acinetobacter baumannii; conditions: Acinetobacter baumannii, 6077/12; for MIC: 37 °C, 24 h, read-out: MIC; for MBC: subcultivation, 24 h at 37 °C, read-out: MBC
# Experimental: as §1
# A. baumannii S2/2 = assay: Antimicrobial microdilution assay (MIC/MBC); assay type: cell-based, Acinetobacter baumannii; conditions: Acinetobacter baumannii, S2/2; for MIC: 37 °C, 24 h, read-out: MIC; for MBC: subcultivation, 24 h at 37 °C, read-out: MBC
# Experimental: as §1
# P. aeruginosa MMA83 = assay: Antimicrobial microdilution assay (MIC/MBC); assay type: cell-based, Pseudomonas aeruginosa; conditions: for MIC: 37 °C, 24 h, read-out: MIC; for MBC: subcultivation, 24 h at 37 °C
# Experimental: as §1
# P. aeruginosa IBRS P001 = assay: Antimicrobial microdilution assay (MIC/MBC); assay type: cell-based, Pseudomonas aeruginosa; conditions: Pseudomonas aeruginosa, IBRSP001; for MIC: 37 °C, 24 h, read-out: MIC; for MBC: subcultivation, 24 h at 37 °C, read-out: MBC
# Experimental: as §1
# HaCaT cells = assay: Cytotoxicity in HaCaT cell line (crystal violet assay); assay type: cell-based, human; conditions: for IC50: Homo sapiens, 24 h treatment, crystal violet, read-out: IC50 (compound concentration that inhibited 50% of the cell growth)
# Experimental: For determination of the polyphenols’ cytotoxic effect, a crystal violet assay was used, with modifications. The cytotoxic effect of polyphenols was analyzed on spontaneously immortalized human skin keratinocytes (HaCaT, AddexBio No. T0020001, San Diego, CA, USA) cell lines. […] Cells (1 × 10^4 cells/well) were seeded in a 96-well plate (Sarstedt, Nümbrecht, Germany) 24 h before treatment. […] Cells were incubated with the compounds for 24 h. […] After crystal violet was removed, the plates were washed in a stream of tap water and left to air-dry at room temperature for 24 h. The absorbance was measured in a microplate reader (Multiskan™ FC Microplate Photometer, Thermo Scientific™) at 590 nm. The results were expressed as IC50 value in μg/mL. The criterion used to categorize the cytotoxic activity polyphenols was as follows: […] All analyses were performed in triplicate; each replicate was also quantified three times. Data were expressed as mean standard deviation, where applicable.
# K. pneumoniae Ni9 = assay: Antimicrobial microdilution assay (MIC/MBC); assay type: cell-based, Klebsiella pneumoniae; conditions: Klebsiella pneumoniae, NI9; for MIC: read-out: MIC; for MBC: subcultivation, 24 h at 37 °C, read-out: MBC
# Experimental: as §1
# K. pneumoniae IT977 = assay: Antimicrobial microdilution assay (MIC/MBC); assay type: cell-based, Klebsiella pneumoniae; conditions: Klebsiella pneumoniae, IT977; for MIC: read-out: MIC; for MBC: subcultivation, 24 h at 37 °C, read-out: MBC
# Experimental: as §1
# [2] = system: Escherichia coli K-12 MG1655, Salmonella enterica serovar Typhimurium LT2, and Pseudomonas putida ATCC 795; set-up: method as in PMID 18045389; conditions: cited from earlier work
# [3] = system: eleven antibiotic resistant strains of bacteria; assay: Antimicrobial assay, summary over the examined strains; assay type: cell-based; conditions: summary of Table 1
# Experimental: as §1
# [4] = system: P. aeruginosa IBRS P001 biofilm; assay: Crystal violet antibiofilm assay (biofilm formation); assay type: cell-based, Pseudomonas aeruginosa; conditions: MIC and sub-MIC, 24 h, crystal violet, Figure 1
# Experimental: After incubation, each well was washed twice with sterile PBS (phosphate-buffered saline, pH 7.4) and fixed with methanol for 10 min. After removal of methanol the plate was air-dried. The biofilm was stained with 0.1% crystal violet (Bio-Merieux, Marcy l’Etoile, France) for 30 min. The plate was washed with water, air dried, and the stain was dissolved with 200 μL of 96% ethanol (Zorka, Sabac, Serbia). The absorbance was read at 620 nm on a Multiskan™ FC microplate photometer (Thermo Scientific™, Waltham, MA, USA). The results are presented as biofilm forming capacity (%) compared to control.
# P. aeruginosa MTCC 2488 = system: P. aeruginosa MTCC 2488; set-up: method as in PMID 32057619; conditions: cited from earlier work
# [5] = system: E. coli (fluoroquinolones and ampicillin-resistant); set-up: method as in A previous investigation; conditions: ref A previous investigation; cited from earlier work
# [6] = Staphylococcus aureus, MRSA, 24 h
# [7] = Pseudomonas aeruginosa, MMA83, read-out: MBC
# [8] = restated in the discussion for two strains examined
# [9] = Staphylococcus aureus, MRSA, 37 °C, 24 h, read-out: MIC
# [10] = Staphylococcus aureus, MRSA, subcultivation, 24 h at 37 °C, read-out: MBC
SMILES,MIC (S. infantis 1371/1) [µg/mL],MBC (S. infantis 1371/1) [µg/mL],MIC (E. coli IMD989) [µg/mL],MBC (E. coli IMD989) [µg/mL],MIC (E. coli IBRS E003) [µg/mL],MBC (E. coli IBRS E003) [µg/mL],MIC (A. xylosoxidans 37F) [µg/mL],MBC (A. xylosoxidans 37F) [µg/mL],MIC (A. baumannii 6077/12) [µg/mL],MBC (A. baumannii 6077/12) [µg/mL],MIC (A. baumannii S2/2) [µg/mL],MBC (A. baumannii S2/2) [µg/mL],"MIC (P. aeruginosa MMA83; Pseudomonas aeruginosa, MMA83) [µg/mL]",MBC (P. aeruginosa MMA83; [7]) [µg/mL],MIC (P. aeruginosa IBRS P001) [µg/mL],MBC (P. aeruginosa IBRS P001) [µg/mL],"MIC (K. pneumoniae Ni9; 37 °C, 24 h) [µg/mL]",MBC (K. pneumoniae Ni9) [µg/mL],"MIC (K. pneumoniae IT977; 37 °C, 24 h) [µg/mL]",MBC (K. pneumoniae IT977) [µg/mL],other results
"O=C(/C=C/c1ccc(O)c(O)c1)O[C@@H]1C[C@](O)(C(=O)O)C[C@@H](O)[C@H]1O [Chlorogenic Acid, chlorogenic acid]",> 1000,> 1000,> 1000,> 1000,> 1000,> 1000,1000,> 1000,1000,1000,1000,> 1000,1000,> 1000,500,1000,> 1000,> 1000,> 1000,> 1000,"MBC [1, 6]: 1000 µg/mL; MIC [1, 6]: 500 µg/mL; IC50 (HaCaT cells; HaCaT): 279 ± 8 µg/mL; MIC (K. pneumoniae Ni9; [8]): > 1000 µg/mL; MIC (K. pneumoniae IT977; [8]): > 1000 µg/mL"
"COc1ccc([C@@H]2CC(=O)c3c(O)cc(O)cc3O2)cc1O [Hesperetin, hesperetin]",> 1000,> 1000,> 1000,> 1000,> 1000,> 1000,1000,1000,500,500,500,500,1000,1000,500,1000,1000,1000,> 1000,> 1000,"MIC [2]: ≥ 1000 µg/mL; MIC towards a range of antibiotic-resistant bacterial strains [3]: ≥ 500 µg/mL; reduction of biofilm formation (biomass), in words [4]: significant (****, p < 0.0001) reduction; MIC [1, 9]: 500 µg/mL; MBC [1, 10]: 1000 µg/mL; cytotoxicity towards HaCaT, in words (HaCaT cells): non-cytotoxic properties; IC50 (HaCaT cells; HaCaT): > 1000 µg/mL"
"O=C1C[C@@H](c2ccc(O)cc2)Oc2cc(O)cc(O)c21 [Naringenin, naringenin]",> 1000,> 1000,1000,> 1000,500,1000,1000,1000,500,500,500,500,1000,1000,250,500,250,500,1000,1000,"MIC ([1]; 37 °C, 24 h): 250 µg/mL; MIC [1, 9]: 250 µg/mL; MBC [1, 10]: 500 µg/mL; IC50 (HaCaT cells; HaCaT): 528 ± 47 µg/mL"
"C[C@@H]1O[C@@H](O[C@H]2[C@H](Oc3cc(O)c4c(c3)O[C@H](c3ccc(O)cc3)CC4=O)O[C@H](CO)[C@@H](O)[C@@H]2O)[C@H](O)[C@H](O)[C@H]1O [Naringin, naringin]",> 1000,> 1000,> 1000,> 1000,> 1000,> 1000,> 1000,> 1000,> 1000,> 1000,> 1000,> 1000,> 1000,> 1000,250,500,> 1000,> 1000,> 1000,> 1000,"Bactericidal concentration (P. aeruginosa MTCC 2488): 1.4 mg/mL; IC50 (P. aeruginosa MTCC 2488): 570 µg/mL; reduction of biofilm formation (biomass), in words [4]: not significantly altered; MIC [1, 9]: 500 µg/mL; MBC [1, 10]: 1000 µg/mL; MBC (P. aeruginosa MMA83): >1000 µg/mL; IC50 (HaCaT cells; HaCaT): > 1000 µg/mL"
"[H]/N=C(/N)N[C@H]1[C@H](O)[C@@H](O)[C@H](O[C@@H]2O[C@@H](C)[C@](O)(C=O)[C@H]2O[C@@H]2O[C@@H](CO)[C@H](O)[C@@H](O)[C@@H]2NC)[C@@H](N/C(N)=N\[H])[C@@H]1O [Streptomycin, reference compound]",> 1000,> 1000,1000,> 1000,100,200,> 1000,> 1000,> 1000,> 1000,> 1000,> 1000,> 1000,> 1000,50,100,> 1000,> 1000,> 1000,> 1000,"MBC [1, 6]: 800 µg/mL; MIC [1, 6]: 100 µg/mL"
"O=C(O)/C=C/c1ccc(O)cc1 [p-Coumaric Acid, p-coumaric acid]",1000,1000,1000,1000,> 1000,> 1000,1000,1000,500,500,500,500,500,1000,500,1000,1000,1000,1000,1000,"MIC [5]: 1000 µg/mL; MIC [1, 9]: 500 µg/mL; MBC [1, 10]: 1000 µg/mL; cytotoxicity category (HaCaT cells; HaCaT, maximal tested concentrations (1 mg/mL)): no cytotoxicity (IC50 > 501 µg/mL = no cytotoxicity); IC50 (HaCaT cells; HaCaT): > 1000 µg/mL"
